# Data as given in US20260176270A1 (Exelixis, Inc., priority 2022, published 2026).
# Read-outs that look alike come from different tables or passages of the source.
# Columns and labels:
# [1] = biological target: T1, PKMYT1 (Homo sapiens, UniProt Q99640); assay: ADP-Glo PKMYT1 ATP-depletion assay; conditions: 50 nM PKMYT1, 13.3 nM CDK1, read-out: Biochemical IC50
# T1 construct: PKMYT1 (93 kD, full length, N-terminal GST tag from Signal Chem); GST (N); purchased Signal Chem
# T1 sequence (Q99640 1-499): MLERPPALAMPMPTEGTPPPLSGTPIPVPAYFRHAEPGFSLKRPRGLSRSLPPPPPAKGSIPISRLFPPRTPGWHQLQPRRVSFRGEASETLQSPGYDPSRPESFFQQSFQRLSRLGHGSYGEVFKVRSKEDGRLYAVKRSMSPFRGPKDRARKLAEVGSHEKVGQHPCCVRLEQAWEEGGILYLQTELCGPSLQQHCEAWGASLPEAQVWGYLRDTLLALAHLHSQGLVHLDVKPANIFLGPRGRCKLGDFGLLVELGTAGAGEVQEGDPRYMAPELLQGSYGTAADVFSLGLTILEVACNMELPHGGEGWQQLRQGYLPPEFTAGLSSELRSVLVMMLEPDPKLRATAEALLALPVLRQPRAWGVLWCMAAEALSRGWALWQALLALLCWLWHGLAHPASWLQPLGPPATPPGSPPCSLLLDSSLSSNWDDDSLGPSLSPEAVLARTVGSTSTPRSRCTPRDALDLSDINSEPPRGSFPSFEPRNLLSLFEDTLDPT
# In short: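 Full-length N-terminal GST-tagged PKMYT1 (50 nM) with GST-CDK1 (13.3 nM) as substrate and 88 µM ATP, in Hepes buffer with MgCl2, MnCl2, DTT and BSA; DMSO <1%. Incubated 120 min at RT. ADP formed was quantified by ADP-Glo luminescence and used to derive biochemical IC50.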
# [2] = system: phosphorylation of CDK1 at Thr14 in HCC1806 cells; assay: Cell lysate AlphaLISA assay measuring inhibition of phosphorylation of CDK1 Thr14; assay type: cell-based; conditions: read-out: Cellular IC50
# In short: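 HCC1806 cells seeded overnight, then treated 4 h at 37 °C, 5% CO2 with compounds in DMSO; washed and lysed, lysates frozen overnight at −80 °C. CDK1 Thr14 phosphorylation read by AlphaLISA SureFire Ultra; data normalized to DMSO (0% inhibition) and 3 μM reference compound to give IC50.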
SMILES,IC50 [1] [nM],"IC50 ([2]; Homo sapiens, HCC1806, 4 h) [nM]",IC50 ([2]; 4 hours) [nM]
"NC(=O)c1cc2nccnc2c(-c2cc(O)ccc2F)c1N [Compound 114, 7-Amino-8-(2-fluoro-5-hydroxyphenyl)quinoxaline-6-carboxamide]",50 to 500,1000 to 5000,–
"Cc1c(O)cccc1-c1c(N)c(C(N)=O)cc2ncc(C(F)(F)F)nc12 [Compound 115, 7-Amino-8-(3-hydroxy-2-methylphenyl)-2-(trifluoromethyl)quinoxaline-6-carboxamide]",50 to 500,–,500 to 1000
"NC(=O)c1cc2nccnc2c(-c2cccc(O)c2F)c1N [Compound 120, 7-Amino-8-(2-fluoro-3-hydroxyphenyl)quinoxaline-6-carboxamide]",50 to 500,50 to 500,–
"NC(=O)c1cc2nccnc2c(-c2cc(O)ccc2Cl)c1N [Compound 121, 7-Amino-8-(2-chloro-5-hydroxyphenyl)quinoxaline-6-carboxamide]",50 to 500,1000 to 5000,–
"NC(=O)c1cc2nccnc2c(-c2cc(O)cnc2Cl)c1N [Compound 122, 7-Amino-8-(2-chloro-5-hydroxy-3-pyridyl)quinoxaline-6-carboxamide]",1000 to 5000,≥ 5000,–
"Cc1ccc(O)cc1-c1c(N)c(C(N)=O)cc2nccnc12 [Compound 123, 7-Amino-8-(5-hydroxy-2-methylphenyl)quinoxaline-6-carboxamide]",50 to 500,–,1000 to 5000
"Cc1ccc(O)c(C)c1-c1c(N)c(C(N)=O)nc2nccnc12 [Compound 126, 7-amino-8-(3-hydroxy-2,6-dimethylphenyl)pyrido[2,3-b]pyrazine-6-carboxamide]",< 50,50 to 500,–
"Cc1c(O)cccc1-c1c(N)c(C(N)=O)nc2cccc(C#N)c12 [Compound 129, 3-Amino-5-cyano-4-(3-hydroxy-2-methylphenyl)quinoline-2-carboxamide]",< 50,< 50,–
Cc1cc(O)cc(C)c1-c1cc(C(N)=O)nc2ccccc12 [Compound 130],≥ 5000,≥ 5000,–
Cc1cc(O)cc(C)c1-c1cc(C(N)=O)cc2nccnc12 [Compound 131],≥ 5000,≥ 5000,–
Cn1ccc(-c2cc(C(N)=O)cc3nccnc23)cc1=O [Compound 132],≥ 5000,≥ 5000,–
Cc1c(O)cccc1-c1c(N)c(C(N)=O)cc2nc(C(F)(F)F)c(O)nc12 [Compound 133],50 to 500,–,1000 to 5000
COc1cccc(-c2cc(C(N)=O)nc3c(C)ccc(C)c23)c1C [Compound 134],≥ 5000,≥ 5000,–
Cc1c(O)cccc1-c1c(N)c(C(N)=O)cc2nc(O)c(C(F)(F)F)nc12 [Compound 137],1000 to 5000,≥ 5000,–
Cc1c(O)cccc1-c1c(N)c(C(N)=O)cc2nc(C)c(=O)n(C)c12 [Compound 138],50 to 500,–,1000 to 5000
Cc1c(O)cccc1-c1c(N)c(C(N)=O)cc2ncc(C(F)(F)F)nc12 [Compound 139],< 50,–,50 to 500
NC(=O)c1cc2nccnc2c(-c2c(Cl)ccc3[nH]ncc23)c1N [Compound 142],50 to 500,–,1000 to 5000
Cc1ccc2[nH]ncc2c1-c1c(N)c(C(N)=O)cc2cccnc12 [Compound 143],50 to 500,1000 to 5000,–
Cc1ccc2[nH]ncc2c1-c1c(N)c(C(N)=O)cc2ncccc12 [Compound 144],50 to 500,1000 to 5000,–
NC(=O)c1cc2nccnc2c(-c2cncc(O)c2)c1N [Compound 145],50 to 500,≥ 5000,–

SMILES,IC50 [1] [nM],"IC50 ([2]; Homo sapiens, HCC1806, 4 h) [nM]",IC50 ([2]; 4 hours) [nM]
Cc1c(O)cccc1-c1c(N)c(C(N)=O)cc2cc(Cl)cnc12 [Compound 146],< 50,50 to 500,–
COc1cncc(-c2c(N)c(C(N)=O)nc3cccnc23)c1C [Compound 153],50 to 500,–,500 to 1000
CCOc1ccc2nc(C(N)=O)c(N)c(-c3cccc(O)c3C)c2n1 [Compound 154],< 50,50 to 500,–
Cc1c(O)cncc1-c1c(N)c(C(N)=O)nc2cccnc12 [Compound 155],50 to 500,500 to 1000,–
Cc1cnc2cc(C(N)=O)c(N)c(-c3c(C)ccc(O)c3C)c2n1 [Compound 156],< 50,–,50 to 500
COc1ccc2nc(C(N)=O)c(N)c(-c3cccc(O)c3C)c2n1 [Compound 157],< 50,–,50 to 500
Cn1c(-c2c(N)c(C(N)=O)nc3cccnc23)cccc1=O [Compound 158],1000 to 5000,≥ 5000,–
Cc1c(-c2c(N)c(C(N)=O)cc3nccnc23)ccnc1O [Compound 159],≥ 5000,≥ 5000,–
NC(=O)c1nc2cccnc2c(-c2cccc3c2CCN3)c1N [Compound 160],≥ 5000,500 to 1000,–
Cc1c(O)cccc1-c1c(N)c(C(N)=O)nc2cc(C(F)(F)F)cnc12 [Compound 161],< 50,–,50 to 500
NC(=O)c1nc2cccnc2c(-c2cccc3c2CCN3C=O)c1N [Compound 162],≥ 5000,≥ 5000,–
COc1nc2cc(C(N)=O)c(N)c(-c3cccc(O)c3C)c2nc1C [Compound 172],50 to 500,–,50 to 500
COc1nc2c(-c3cccc(O)c3C)c(N)c(C(N)=O)cc2nc1C [Compound 173],50 to 500,–,50 to 500
Cc1ccc2[nH]nc(F)c2c1-c1c(N)c(C(N)=O)cc2nccnc12 [Compound 176],500 to 1000,–,≥ 5000
Cc1ccc(O)c(C)c1-c1c(N)c(C(N)=O)cc2cc(Cl)cnc12 [Compound 177],< 50,–,50 to 500
NC(=O)c1cc2nccnc2c(-c2ccc3ocnc3c2)c1N [Compound 178],≥ 5000,≥ 5000,–
NC(=O)c1nc2cccnc2c(-c2cccc3[nH]cnc23)c1N [Compound 181],≥ 5000,≥ 5000,–
NC(=O)c1cc2nccnc2c(-c2ccnc3[nH]ncc23)c1N [Compound 182],1000 to 5000,≥ 5000,–
NC(=O)c1nc2cccnc2c(-c2cnc(N)cc2C(F)(F)F)c1N [Compound 183],≥ 5000,≥ 5000,–
Cc1ccncc1-c1c(N)c(C(N)=O)nc2cccnc12 [Compound 184],50 to 500,≥ 5000,–

SMILES,IC50 [1] [nM],"IC50 ([2]; Homo sapiens, HCC1806, 4 h) [nM]",IC50 ([2]; 4 hours) [nM]
COc1cncc(C2=c3ncccc3=NC(C(N)=O)C2N)c1C (stereo not shown) [Compound 186],50 to 500,500 to 1000,–
Cc1c(O)cccc1-c1c(N)c(C(N)=O)cc2nc(C(F)(F)F)cnc12 [Compound 189],50 to 500,–,500 to 1000
NC(=O)c1nc2cccnc2c(-c2ccc(F)c3[nH]ncc23)c1N [Compound 190],50 to 500,1000 to 5000,–
NC(=O)c1nc2cccnc2c(-c2ccnc3[nH]ncc23)c1N [Compound 191],1000 to 5000,≥ 5000,–
Cc1cnc2c(-c3cccc(O)c3C)c(N)c(C(N)=O)cc2c1 [Compound 196],50 to 500,1000 to 5000,–
Cc1c(-c2c(N)c(C(N)=O)cc3nccnc23)ccc2oc(N)nc12 [Compound 197],≥ 5000,≥ 5000,–
NC(=O)c1cc2nccnc2c(-c2ccc3ncoc3c2)c1N [Compound 198],≥ 5000,≥ 5000,–
NC(=O)c1cc2nccnc2c(-c2cccc(O)c2C(F)(F)F)c1N [Compound 199],50 to 500,1000 to 5000,–
NC(=O)c1cc2nccnc2c(-c2ccc(F)c(O)c2)c1N [Compound 200],50 to 500,≥ 5000,–
Cc1c(O)cccc1-c1c(N)c(C(N)=O)cc2ncc(=O)n(C)c12 [Compound 202],1000 to 5000,≥ 5000,–
NC(=O)c1nc2cccnc2c(-c2cc(F)cc3[nH]ncc23)c1N [Compound 203],50 to 500,1000 to 5000,–
NC(=O)c1nc2cccnc2c(-c2ccc3c[nH]nc3c2)c1N [Compound 204],1000 to 5000,≥ 5000,–
Cc1cc2c[nH]nc2cc1-c1c(N)c(C(N)=O)nc2cccnc12 [Compound 205],≥ 5000,≥ 5000,–
NC(=O)c1nc2cccnc2c(-c2cccc3[nH]ncc23)c1N [Compound 206],50 to 500,1000 to 5000,–
Cc1ncccc1-c1c(N)c(C(N)=O)nc2cccnc12 [Compound 207],≥ 5000,≥ 5000,–
Cc1c(F)cncc1-c1c(N)c(C(N)=O)nc2cccnc12 [Compound 208],50 to 500,500 to 1000,–
Cc1cnn(C)c1-c1c(N)c(C(N)=O)nc2cccnc12 [Compound 210],≥ 5000,≥ 5000,–
Cc1cncc(C2=c3ncccc3=NC(C(N)=O)C2N)c1C (stereo not shown) [Compound 211],500 to 1000,1000 to 5000,–
Cc1cncc(C2=c3ncccc3=NC(C(N)=O)C2N)c1C (stereo not shown) [Compound 212],50 to 500,–,500 to 1000
